Consider twelve compounds from US8440653B2, “3-substituted-1,4-diazepan-2-one melanocortin-5 receptor antagonists” (Mimetica Pty Ltd, priority 2008, dated 2013).

T1 sequence (P33032 whole entry): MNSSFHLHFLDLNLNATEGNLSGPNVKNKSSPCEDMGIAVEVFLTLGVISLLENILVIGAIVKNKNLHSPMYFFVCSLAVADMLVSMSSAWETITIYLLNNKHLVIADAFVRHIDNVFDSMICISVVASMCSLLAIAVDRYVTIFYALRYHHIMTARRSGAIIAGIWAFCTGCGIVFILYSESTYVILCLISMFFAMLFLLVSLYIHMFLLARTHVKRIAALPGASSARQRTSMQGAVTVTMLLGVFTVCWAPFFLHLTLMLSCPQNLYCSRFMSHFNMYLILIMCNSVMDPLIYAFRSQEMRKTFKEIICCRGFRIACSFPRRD

The assay has as its target T1, human MC5R (hMC5R) (Homo sapiens, UniProt P33032).
T1 construct: purchased Perkin Elmer RBXMC5M400UA
In words: Human MC5R radioligand binding assay ([125I] NDP-MSH displacement). The following applies: hMC5R membranes, [125I] NDP-MSH; tested as trifluoroacetate or hydrochloride salts or free bases; read-out: MC5R radioligand IC50. How it is done: Assessments of compound binding to human MC5R (hMC5R) by displacement of an ^125I-labeled NDP-MSH receptor ligand peptide were performed essentially as described in the data sheets produced by Perkin Elmer to accompany their frozen hMC5R membranes (Perkin Elmer catalog number RBXMC5M400UA).
Na^125I (0.5 mCi, 17.4 Ci/mg) was added to 50 μL sodium phosphate (50 mM, pH 7.4) in an eppendorf tube precoated with IODOGEN. After incubation for 10 mins the phosphate buffer containing the iodine was added to NDP-MSH (10 ul at 1 mg/mL) in a separate eppendorf tube. This was incubated for a further 10 mins. The iodinated NDP-MSH was purified by HPLC on a Zorbax SB 300 column using solvent A: 0.05% TFA and solvent B: 90% acetonitrile 0.045% TFA with a linear gradient, 0-67% B over 60 mins. The ^125I NDP-MSH eluted at 52 min after the unlabeled starting material (48 min) and was counted and stored in the freezer.
Incubation buffer: 25 mM HEPES-KOH (pH 7.0), 1.5 mM CaCl2, 1 mM MgSO4, 0.1 M NaCl, 1 mM 1,10-phenanthroline, and 1 Complete™ protease inhibitor tablet/100 mL (Roche, catalog number 1873580)
Perkin Elmer frozen hMC5 membranes: catalog number RBXMC5M400UA, 0.4 mL/vial; 400 microassays/vial. 0.78 mg/mL protein concentration
Vials of frozen membranes were thawed rapidly immediately before use, diluted with binding buffer and vortexed. Resuspended membranes were kept on ice until they were added to the wells of the plate.
Assays were performed in 96 well polypropylene plates. […] This was incubated for 1 hr at 37° C. […] Non-specific binding just under 5%.
Representative compounds of the present invention were tested for binding in the hMC5R assay as in Example 46, as listed in Table 3. The compounds were tested as their trifluoroacetate or hydrochloride salts, or as their free bases.
For orientation: IC50 means the concentration at which inhibition is half-maximal. As for `CC[C@H](CN1CC[C@@H](CNC(=O)c2ccc3cc(Cl)ccc3c2)N[C@@H](CCOC)C1=O)c1ccccc1` [Compound 77, 6-chloro-N-(((3S,5S)-3-(2-methoxyethyl)-2-oxo-1-((S)-2-phenylbutyl)-1,4-diazepan-5-yl)methyl)-2-naphthamide], the IC50 is below 100 nM.

Turning to `N=C(N)NOCC[C@@H]1N[C@H](CNC(=O)c2ccc3ccccc3c2)CCN(CC(c2ccccc2)c2ccccc2)C1=O` [Compound 46, N-(((3S,5S)-1-(2,2-diphenylethyl)-3-(2-(guanidinooxy)ethyl)-2-oxo-1,4-diazepan-5-yl)methyl)-2-naphthamide], the 50% inhibitory concentration (IC50) was below 1000 nM.

Turning to `O=C(/C=C/c1ccc(Cl)cc1)NC[C@@H]1CCN(CC(c2ccccc2)c2ccccc2)C(=O)[C@H](Cc2c[nH]cn2)N1` [Compound 63, (E)-N-(((3S,5S)-3-((1H-imidazol-4-yl)methyl)-1-(2,2-diphenylethyl)-2-oxo-1,4-diazepan-5-yl)methyl)-3-(4-chlorophenyl)acrylamide], the 50% inhibitory concentration (IC50) is below 10000 nM. With `Nc1ccccc1C[C@@H]1N[C@H](CNC(=O)/C=C/c2ccc(Cl)cc2)CCN(CC(c2ccccc2)c2ccccc2)C1=O` [Compound 68] the figure was below 1000 nM. Turning to `CC[C@H](CN1CC[C@@H](CNC(=O)c2ccc(Cl)c(Cl)c2)N[C@@H](CCO)C1=O)c1ccccc1` [Compound 80, 3,4-dichloro-N-(((3S,5S)-3-(2-hydroxyethyl)-2-oxo-1-((S)-2-phenylbutyl)-1,4-diazepan-5-yl)methyl)benzamide], the IC50 is below 10000 nM. Take `Nc1ccccc1C[C@@H]1N[C@H](CNC(=O)c2ccc3ccccc3c2)CCN(CC(c2ccccc2)c2ccccc2)C1=O` [Compound 69, N-(((3S,5S)-3-(2-aminobenzyl)-1-(2,2-diphenylethyl)-2-oxo-1,4-diazepan-5-yl)methyl)-2-naphthamide]: the 50% inhibitory concentration (IC50) is below 1000 nM. Consider `CC[C@H](CN1CC[C@@H](CNC(=O)c2ccc3ccccc3c2)N[C@@H](CCC(=O)NC2CCCCC2)C1=O)c1ccccc1` [Compound 73, N-(((3S,5S)-3-(3-(cyclohexylamino)-3-oxopropyl)-2-oxo-1-((S)-2-phenylbutyl)-1,4-diazepan-5-yl)methyl)-2-naphthamide], for which the IC50 is below 1000 nM.

For `CCCC[C@@H]1N[C@H](CNC(=O)c2ccc3ccccc3c2)CCN(CC(c2ccccc2)c2ccccc2)C1=O` [Compound 49, N-(((3S,5S)-3-butyl-1-(2,2-diphenylethyl)-2-oxo-1,4-diazepan-5-yl)methyl)-2-naphthamide], the half-inhibitory concentration (IC50) was below 1000 nM. With `O=C(NC[C@@H]1CCN(CC(c2ccccc2)c2ccccc2)C(=O)[C@H](CCc2ccccc2)N1)c1ccc2ccccc2c1` [Compound 57, N-(((3S,5S)-1-(2,2-diphenylethyl)-2-oxo-3-phenethyl-1,4-diazepan-5-yl)methyl)-2-naphthamide], the IC50 was below 1000 nM. With `CC[C@H](CN1CC[C@@H](CNC(=O)c2ccc3cc(Cl)ccc3c2)N[C@@H](CCC2CCCCC2)C1=O)c1ccccc1` [Compound 74, 6-chloro-N-(((3S,5S)-3-(2-cyclohexylethyl)-2-oxo-1-((S)-2-phenylbutyl)-1,4-diazepan-5-yl)methyl)-2-naphthamide], the half-inhibitory concentration (IC50) was below 10000 nM. With `O=C(NC[C@@H]1CCN(CC(c2ccccc2)c2ccccc2)C(=O)[C@H](CC2CCCCC2)N1)c1ccc2ccccc2c1` [Compound 53, N-(((3S,5S)-3-(cyclohexylmethyl)-1-(2,2-diphenylethyl)-2-oxo-1,4-diazepan-5-yl)methyl)-2-naphthamide] the figure was below 1000 nM; with `O=C(/C=C/c1ccc(Cl)cc1)NC[C@@H]1CCN(CC(c2ccccc2)c2ccccc2)C(=O)[C@H](CC(=O)Nc2ccccn2)N1` [Compound 64, (E)-3-(4-chlorophenyl)-N-(((3S,5S)-1-(2,2-diphenylethyl)-2-oxo-3-(2-oxo-2-(pyridin-2-ylamino)ethyl)-1,4-diazepan-5-yl)methyl)acrylamide], below 1000 nM.
